Molecular target: T1, human GPR40 (Homo sapiens, UniProt O14842)
T1 construct: expressed in transfected cells
Test: Evaluation of human GPR40 agonist activity with increase in intracellular Ca2+ concentration as an index (FLIPR)
Assay type: cell-based
Conditions: test compound 1 μM; CHO(dhfr−) cells stably expressing human GPR40; 100% = 10 μM compound of Example 153, 0% = DMSO
Description: Plasmid hGPR40/pAKKO-1.11H for mammalian cells expression, wherein cDNA fragment (SEQ ID NO: 1) encoding the full-length human GPR40 was incorporated into an expression vector pAKKO-1.11H (Biochimica et Biophysica Acta vol. 1219 pp. 251-259 (1994)), was transfected into CHO-dhfr(−) cells (ATCC, CRL-9096) by using Lipofectamine 2000 (Invitrogen:11668-019). After transfection, the limiting dilution-culture method was performed to select clone in selection medium (nucleic acid-free α-MEM (Invitrogen:12561-056)) containing 10% dialyzed bovine serum (Invitrogen:26400-044)). The expression level of human GPR40 mRNA was confirmed by TaqMan PCR (Life Technologies), and the intracellular calcium mobilization activity of GPR40 ligand (γ-linolenic acid) was confirmed by FLIPR (Molecular Devices), and a clone of human GPR40 expressing CHO cells was selected.
Evaluation of Human GPR40 Agonist Activity with Increase in Intracellular Ca^2+ Concentration as an Index
CHO(dhfr−) cells that stably expressed human GPR40 were suspended in MEMα (Nikken Bio Medical Laboratory) containing 10% dialyzed bovine serum (JR Scientific), 10 mM HEPES (Life Technologies), 100 U/mL penicillin, 100 μg/mL streptomycin (Life Technologies), and plated on a 384 well black/clear cell culture plate at 10,000 cells/well. After culture overnight in a CO2 incubator at 37° C., the culture supernatant was removed, and loading buffer [Ca^2+ probe attached to Calcium Kit II-iCellux (DOJINDO) was dissolved in assay buffer (20 mM HEPES, 0.1% fatty acid-free BSA (Sigma-Aldrich), 2.5 mM probenecid (DOJINDO)-containing HESS (Life Technologies))] was added at 30 μL/well. After leaving for 1 hr at room temperature under light shielding, assay buffer containing the test compound at a final concentration of 1 μM was added at 10 μL/well in FLIPR Tetra (Molecular Devices), and the fluorescence amount was successively measured. Human GPR40 agonist activity calculated using an increase in the intracellular Ca^2+ concentration as an index, wherein the activity of 10 μM of the compound of Example 153 was 100%, and the activity when DMSO was added instead of the test compound was 0%.

T1 sequence (O14842 whole entry): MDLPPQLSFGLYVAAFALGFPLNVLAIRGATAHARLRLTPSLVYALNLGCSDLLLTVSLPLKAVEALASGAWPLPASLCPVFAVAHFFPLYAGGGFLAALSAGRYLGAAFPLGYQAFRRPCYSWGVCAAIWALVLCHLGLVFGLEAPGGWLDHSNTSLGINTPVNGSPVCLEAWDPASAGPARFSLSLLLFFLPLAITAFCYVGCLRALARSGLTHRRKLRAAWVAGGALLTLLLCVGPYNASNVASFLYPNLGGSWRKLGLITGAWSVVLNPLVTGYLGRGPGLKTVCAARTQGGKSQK

| activation at 1 µM [%] | SMILES |
| --- | --- |
| 102 | COc1ccc(C(=O)N(CC(C)C)c2ccccn2)c(N2CCC(COc3cc(C(CC(=O)O)C4CC4)ccn3)CC2)c1 (stereo not shown) [Example 113, 3-cyclopropyl-3-(2-((1-(5-methoxy-2-((2-methylpropyl)(pyridin-2-yl)carbamoyl)phenyl)piperidin-4-yl)methoxy)pyridin-4-yl)propanoic acid] |
| 97 | COc1ccc(C(=O)N(CC(F)(F)F)c2ncccn2)c(N2CCC(COc3cc(C(CC(=O)O)C4CC4)ccn3)CC2)c1 (stereo not shown) [Example 166, 3-cyclopropyl-3-(2-((1-(5-methoxy-2-(pyrimidin-2-yl(2,2,2-trifluoroethyl)carbamoyl)phenyl)piperidin-4-yl)methoxy)pyridin-4-yl)propanoic acid] |
| 99 | COc1ccc(C(=O)N(CC(C)C)c2cccc(C#N)c2)c(N2CCC(COc3cc(C(CC(=O)O)C4CC4)ccn3)CC2)c1 (stereo not shown) [Example 132, 3-(2-((1-(2-((3-cyanophenyl)(2-methylpropyl)carbamoyl)-5-methoxyphenyl)piperidin-4-yl)methoxy)pyridin-4-yl)-3-cyclopropylpropanoic acid] |
| 101 | COc1ccc(C(=O)N(CC(F)(F)F)c2cc(C)nc(C)n2)c(N2CCC(COc3cc(C(CC(=O)O)C4CC4)ccn3)CC2)c1 (stereo not shown) [Example 238, 3-cyclopropyl-3-(2-((1-(2-((2,6-dimethylpyrimidin-4-yl) (2,2,2-trifluoroethyl)-carbamoyl)-5-methoxyphenyl)piperidin-4-yl)methoxy)pyridin-4-yl)propanoic acid] |
| 103 | COc1ccc(C(=O)N(Cc2ccccc2)c2ccccn2)c(N2CCC(COc3cc(C(CC(=O)O)C4CC4)ccn3)CC2)c1 (stereo not shown) [Example 197, 3-(2-((1-(2-(benzyl(pyridin-2-yl)carbamoyl)-5-methoxyphenyl)piperidin-4-yl)methoxy)pyridin-4-yl)-3-cyclopropylpropanoic acid] |
| 98 | COc1ccc(C(=O)N(CC(C)C)c2ccccc2)c(N2CCC(COc3cc(C(CC(=O)O)C4CC4)ccn3)CC2)c1 (stereo not shown) [Example 133, 3-cyclopropyl-3-(2-((1-(5-methoxy-2-((2-methylpropyl)(phenyl)carbamoyl)phenyl)piperidin-4-yl)methoxy)pyridin-4-yl)propanoic acid] |
| 103 | COc1cc(N2CCC(COc3cc(C(CC(=O)O)C4CC4)ccn3)CC2)c(C(=O)N(CC(C)(C)C)c2cc(C)cc(C)n2)cn1 (stereo not shown) [Example 284, 3-cyclopropyl-3-(2-((1-(5-((2,2-dimethylpropyl) (4,6-dimethylpyridin-2-yl)-carbamoyl)-2-methoxypyridin-4-yl)-piperidin-4-yl)-methoxy)pyridin-4-yl)propanoic acid] |
| 96 | COCC(CC(=O)O)c1cccc(OCC2CCN(c3cc(OC)ccc3C(=O)N(CC(C)(C)C)c3cccc(C)n3)CC2)c1 (stereo not shown) [Example 276, 3-(3-((1-(2-((2,2-dimethylpropyl) (6-methylpyridin-2-yl)carbamoyl)-5-methoxyphenyl)piperidin-4-yl)methoxy)phenyl)-4-methoxybutanoic acid] |
| 96 | COc1ccc(C(=O)N(CC2CC2)c2cccc(C)n2)c(N2CCC(COc3cc(C(CC(=O)O)C4CC4)ccn3)CC2)c1 (stereo not shown) [Example 124, 3-cyclopropyl-3-(2-((1-(2-((cyclopropylmethyl)(6-methylpyridin-2-yl)carbamoyl)-5-methoxyphenyl)piperidin-4-yl)methoxy)pyridin-4-yl)propanoic acid] |
| 93 | COc1ccc(C(=O)N(CC(C)C)c2ccc(OC)nc2)c(N2CCC(COc3cc(C(CC(=O)O)C4CC4)ccn3)CC2)c1 (stereo not shown) [Example 140, 3-cyclopropyl-3-(2-((1-(5-methoxy-2-((6-methoxypyridin-3-yl)(2-methylpropyl)carbamoyl)phenyl)piperidin-4-yl)methoxy)pyridin-4-yl)propanoic acid] |
